Laboratory results reported in patent US7771977B2, “Alkane polyol dehydrogenase” (National University Corporation Nara Institute of Science …, priority 2006, dated 2010).
Entries after “also recorded” stand apart in the source; their conditions may differ. Where two headings read alike, the source gives them in different places.

What was measured:
E. coli HB101 (pSE420D) = assay: Substrate specificity, comparison transformant E. coli HB101 (pSE420D) without the enzyme gene; type: biochemical, Escherichia coli; details: for Activity, E. coli HB101 (pSE-420D): comparison transformant, substrate 100 mM, 2 mM NAD+, pH 8.0, 25° C.
Description: (§1) 1 U was defined as the amount of enzyme that catalyzes the formation of 1 μmol of NADH per minute.
(§2) The substrate specificity of the protein of the present invention was analyzed using the purified enzyme obtained in Example 1 and the transformant (E. coli HB101 (pSE-HOG)) obtained in Example 3. For comparison, the same analysis was conducted with respect to a transformant (E. coli HB101 (pSE420D)) that was produced in the same manner as for E. coli HB101 (pSE-HOG), except that the plasmid (pSE420D) in which the relevant enzyme gene was not inserted was used.
(§3) Measurement was performed in the same manner as in the activity measurements described earlier in 4-1.

[1] = tested on: alkane polyol dehydrogenase (purified enzyme); type: biochemical, Pichia ofunaensis
Description: (§4) The reaction solutions were prepared using plural substrates with varied concentrations. Each solution contained a substrate, 2 mM NAD^+, and an enzyme, and was allowed to react in a 100 mM potassium phosphate buffer solution (pH 8.0) at 25° C. Then, changes in absorbance (molar absorption coefficient 6,220 M^−1·cm^−1) at 340 nm due to the NADH formation were measured. 1 U is defined as an enzyme amount for catalyzing 1 μmol NADH formation per minute.
(§5) The alkane polyol dehydrogenase obtained in Example 1 was utilized to measure the enzyme activities in the following manner.
as §1, §3
Such activity was measured by causing a reaction mixture containing 5 mM (R)-1,2-octanediol, 2 mM NAD^+ and enzyme to react in a 100 mM potassium phosphate buffer solution (pH 8.0) at 25° C., then observing the change, due to NADH formation, of absorbance (molecular absorption coefficient 6,220 M^−1 ·cm^−1) at 340 nm. 1 U was defined as the amount of enzyme that catalyzes the formation of 1 μmol of NADH per minute.

[2] = tested on: alkane polyol dehydrogenase expressed in E. coli HB101 (pSE-HOG); assay: Substrate specificity, cell extract of transformant E. coli HB101 (pSE-HOG); type: biochemical, Pichia ofunaensis; details: for Activity, E. coli HB101 (pSE-HOG): cell extract, 2 mM NAD+, pH 8.0, 25° C.; for dehydrogenation (oxidative) activity of E. coli HB101 (pSE-HOG), in words: Table 4
Description: The Escherichia coli HB101 strain containing the pSE-HOG was cultivated in LB medium containing ampicillin. When the absorbance at 600 nm was 0.5, 0.1 mM IPTG was added thereto. Six hours after the addition, cells were harvested by centrifugal separation.
The obtained cells were suspended in a cell disruption solution (100 mM potassium phosphate buffer solution (pH 8.0)). The cell bodies therein were disrupted using a mini bead beater (produced by BioSpec Products), then subjected to centrifugal separation for 10 minutes under an acceleration of 16,000 g. Thereby, the supernatant thereof as a cell extract was obtained.
as §1, §2, §3

[3] = tested on: alkane polyol dehydrogenase (purified enzyme); assay: Reduction activity measurement with purified alkane polyol dehydrogenase (NADH reduction at 340 nm); type: biochemical, Pichia ofunaensis; details: for reduction activity of the purified enzyme, in words: Table 3; for Reduction Activity: 0.2 mM NADH, pH 6.0, 25° C.
Description: as §4, with “substrate, 0.2” for “substrate, 2”, “mM NADH,” for “mM NAD^+,”, “(pH 6.0)” for “(pH 8.0)”, “NADH reduction” for “NADH formation”, “per minutes.” for “per minute.”
as §5
1 U was defined as the amount of enzyme that catalyzes the reduction of 1 μmol of NADH per minute.

[4] = purified enzyme, substrate 100 mM, 2 mM NAD+, pH 8.0, 25° C.
[5] = purified enzyme, Tables 2 and 4

## C[C@@H](O)CO [(R)-1,2-Propanediol]
E. coli HB101 (pSE420D)
  Activity, E. coli HB101 (pSE-420D): <0.1 U/mg
[1]; [4]
  Oxidative Activity: 89.2 U/mg
[2]; substrate 100 mM
  Activity, E. coli HB101 (pSE-HOG): 0.80 U/mg

## CCCCCCC(O)CO (stereo not drawn) [1,2-Octanediol]
E. coli HB101 (pSE420D); Table 4
  dehydrogenation activity of E. coli HB101 (pSE420D), in words: does not show the dehydrogenation activity
[1]; [5]
  oxidative (dehydrogenation) activity of the purified enzyme, in words: well-oxidized
[1]; purified enzyme, Tables 2 and 4, listed as (R,S)-1,2-octanediol
  oxidative (dehydrogenation) activity of the purified enzyme, in words: excellent dehydrogenation activity; also recorded: show an oxidative activity
[1]; purified enzyme, substrate 5 mM, 2 mM NAD+, pH 8.0, 25° C.
  Oxidative Activity: 64.3 U/mg
[2]; listed as (R,S)-1,2-octanediol
  dehydrogenation (oxidative) activity of E. coli HB101 (pSE-HOG), in words: excellent dehydrogenation activity; also recorded: show an oxidative activity
[2]; substrate 5 mM
  Activity, E. coli HB101 (pSE-HOG): 0.53 U/mg

## CC(O)CCC(C)O (stereo not drawn) [2,5-Hexanediol]
[1]; [5]
  oxidative (dehydrogenation) activity of the purified enzyme, in words: only a weak oxidative activity
[1]; [4]
  Oxidative Activity: 0.77 U/mg

## CC(O)C(C)O (stereo not drawn) [2,3-Butanediol]
[1]; [5]
  oxidative (dehydrogenation) activity of the purified enzyme, in words: well-oxidized; also recorded: high dehydrogenation activity
[1]; [4]
  Oxidative Activity: 50.0 U/mg
[2]
  dehydrogenation (oxidative) activity of E. coli HB101 (pSE-HOG), in words: high dehydrogenation activity

## CC(=O)C(C)O (stereo not drawn) [3-Hydroxy-2-butanone]
[1]; [4]
  Oxidative Activity: 0.55 U/mg
[3]
  reduction activity of the purified enzyme, in words: high reduction activity
[3]; substrate 100 mM
  Reduction Activity: 102 U/mg

## C[C@H](O)CO [(S)-1,2-Propanediol]
E. coli HB101 (pSE420D)
  Activity, E. coli HB101 (pSE-420D): <0.1 U/mg
[1]; [4]
  Oxidative Activity: 36.4 U/mg
[2]; substrate 100 mM
  Activity, E. coli HB101 (pSE-HOG): 0.29 U/mg

## CO [Methanol]
[1]; [5]
  oxidative (dehydrogenation) activity of the purified enzyme, in words: did not have oxidative activity

## CCCCCC(C)O (stereo not drawn) [2-Heptanol]
[1]; [5]
  oxidative (dehydrogenation) activity of the purified enzyme, in words: no activity was observed

## O=C1CCCCC1 [Cyclohexanone]
[3]; substrate 10 mM
  Reduction Activity: 0.28 U/mg

## CC(=O)CO [Acetol]
[3]
  reduction activity of the purified enzyme, in words: high reduction activity
[3]; substrate 100 mM
  Reduction Activity: 64.9 U/mg

## CCCCCC[C@@H](O)CO [(R)-1,2-octanediol]
[1]; per 1 mg purified protein, 5 mM substrate, 2 mM NAD+, pH 8.0, 25° C.
  (R)-1,2-octanediol dehydrogenase activity per 1 mg of the purified protein: ≥ 60 U

## CCC(=O)C(=O)CC [3,4-Hexanedione]
[3]
  reduction activity of the purified enzyme, in words: high reduction activity
[3]; substrate 5 mM
  Reduction Activity: 32.8 U/mg

## CC(O)C(C)O (stereo not drawn) [meso-2,3-Butanediol]
E. coli HB101 (pSE420D)
  Activity, E. coli HB101 (pSE-420D): <0.1 U/mg
[1]; [4]
  Oxidative Activity: 160 U/mg
[2]; substrate 100 mM
  Activity, E. coli HB101 (pSE-HOG): 1.17 U/mg

## CCC(O)CO (stereo not drawn) [1,2-Butanediol]
[1]; [5]
  oxidative (dehydrogenation) activity of the purified enzyme, in words: well-oxidized
[1]; [4]
  Oxidative Activity: 61.0 U/mg

## CCCCC(O)CO (stereo not drawn) [1,2-Hexanediol]
[1]; [5]
  oxidative (dehydrogenation) activity of the purified enzyme, in words: well-oxidized
[1]; [4]
  Oxidative Activity: 38.4 U/mg

## CCCC(C)=O [2-Pentanone]
[3]; substrate 100 mM
  Reduction Activity: 3.71 U/mg

## CCC(=O)C(C)=O [2,3-Pentanedione]
[3]
  reduction activity of the purified enzyme, in words: high reduction activity
[3]; substrate 5 mM
  Reduction Activity: 73.8 U/mg

## CCCO [1-Propanol]
[1]
  oxidative (dehydrogenation) activity of the purified enzyme, in words: did not have oxidative activity

## CC(O)CCO (stereo not drawn) [1,3-Butanediol]
[1]; [5]
  oxidative (dehydrogenation) activity of the purified enzyme, in words: only a weak oxidative activity
[1]; [4]
  Oxidative Activity: 6.0 U/mg

## CCC(=O)CO [1-Hydroxy-2-butanone]
[3]; substrate 100 mM
  Reduction Activity: 5.84 U/mg

## CCCC(O)CO (stereo not drawn) [1,2-Pentanediol]
[1]; [5]
  oxidative (dehydrogenation) activity of the purified enzyme, in words: well-oxidized
[1]; [4]
  Oxidative Activity: 99.3 U/mg

## CC(O)CC(C)O (stereo not drawn) [2,4-Pentanediol]
[1]; [5]
  oxidative (dehydrogenation) activity of the purified enzyme, in words: only a weak oxidative activity
[1]; [4]
  Oxidative Activity: 2.53 U/mg

## C[C@@H](O)[C@@H](C)O [(2R,3R)-2,3-Butanediol]
[1]; [4]
  Oxidative Activity: 82.1 U/mg
[2]; substrate 100 mM
  Activity, E. coli HB101 (pSE-HOG): 0.72 U/mg

## OCC[C@@H](O)CO [(R)-1,2,4-Butanetriol]
[1]; [5]
  oxidative (dehydrogenation) activity of the purified enzyme, in words: significant dehydrogenation activity
[1]; [4]
  Oxidative Activity: 3.9 U/mg
[2]
  dehydrogenation (oxidative) activity of E. coli HB101 (pSE-HOG), in words: significant dehydrogenation activity
[2]; substrate 100 mM
  Activity, E. coli HB101 (pSE-HOG): 0.15 U/mg

## CCC(C)O (stereo not drawn) [2-Butanol]
[1]
  oxidative (dehydrogenation) activity of the purified enzyme, in words: weak oxidative activity
[1]; pH 8
  Oxidative Activity: <0.1 U/mg

## CC(O)CO (stereo not drawn) [1,2-Propanediol]
[1]; [5]
  oxidative (dehydrogenation) activity of the purified enzyme, in words: well-oxidized; also recorded: high dehydrogenation activity
[1]; [4]
  Oxidative Activity: 71.7 U/mg
[2]
  dehydrogenation (oxidative) activity of E. coli HB101 (pSE-HOG), in words: high dehydrogenation activity

## CCCCCCO [n-Hexanol]
[1]; [5]
  oxidative (dehydrogenation) activity of the purified enzyme, in words: did not have oxidative activity

## CCC(C)=O [2-Butanone]
[3]; substrate 100 mM
  Reduction Activity: 0.40 U/mg

## CCO [Ethanol]
[1]
  oxidative (dehydrogenation) activity of the purified enzyme, in words: did not have oxidative activity

## CCCCO [1-Butanol]
[1]
  oxidative (dehydrogenation) activity of the purified enzyme, in words: did not have oxidative activity

## CCCC(=O)C(C)=O [2,3-Hexanedione]
[3]
  reduction activity of the purified enzyme, in words: high reduction activity
[3]; substrate 5 mM
  Reduction Activity: 67.5 U/mg

## C[C@H](O)[C@H](C)O [(2S,3S)-2,3-Butanediol]
[1]; [4]
  Oxidative Activity: 19.4 U/mg
[2]; substrate 100 mM
  Activity, E. coli HB101 (pSE-HOG): 0.12 U/mg

## CCCCCC(O)CO (stereo not drawn) [1,2-Heptanediol]
[1]; [5]
  oxidative (dehydrogenation) activity of the purified enzyme, in words: well-oxidized
[1]; purified enzyme, substrate 10 mM, 2 mM NAD+, pH 8.0, 25° C.
  Oxidative Activity: 27.8 U/mg

## CC(C)O [Isopropanol]
[1]; [5]
  oxidative (dehydrogenation) activity of the purified enzyme, in words: weak oxidative activity
[1]; [4]
  Oxidative Activity: 1.45 U/mg

## OCC[C@H](O)CO [(S)-1,2,4-Butanetriol]
[1]; [5]
  oxidative (dehydrogenation) activity of the purified enzyme, in words: no activity was seen
[2]
  dehydrogenation (oxidative) activity of E. coli HB101 (pSE-HOG), in words: no activity was seen

## CCCC(=O)CC [3-Hexanone]
[3]; substrate 10 mM
  Reduction Activity: 1.39 U/mg

## OCc1ccccc1 [Benzyl alcohol]
[1]; [5]
  oxidative (dehydrogenation) activity of the purified enzyme, in words: did not have oxidative activity

## CCCCCO [1-Pentanol]
[1]; [5]
  oxidative (dehydrogenation) activity of the purified enzyme, in words: did not have oxidative activity

## CCCCCCC(C)O (stereo not drawn) [2-Octanol]
[1]; [5]
  oxidative (dehydrogenation) activity of the purified enzyme, in words: no activity was observed
